{"source": "patent US20260021193A1", "about": "“IMMUNOCONJUGATES AND METHODS” (Immunome, Inc., priority 2022, published 2026)", "key": {"[1]": {"tested_on": "MDA-MB-468", "experiment": "CTG assay of payloads, MDA-MB-468 cells", "assay_type": "cell-based, human", "conditions": "Homo sapiens, MDA-MB-468; Table 1; 72 h, CellTiter-Glo", "from_the_text": "(§1) The CTG assay is a method of determining the number of viable cells in culture based on quantitation of the ATP present, an indicator of metabolically active cells. The cell assay requires the addition of a single reagent, Cell Titer Glo, in which cells are lysed and generation of a luminescent signal is produced. The luminescent signal is proportional to the amount of ATP present. The amount of ATP is directly proportional to the number of cells present in culture. For this assay, cells were ensured to be in log-phase for either Jeko-1 or MDA-MB-468. Cells were transferred to 96 wells and treated with compounds in three-fold serial dilution starting from […] (10 points dilution), for 72 h. Cell viability was analyzed with CellTiter-Glo® Luminescent Cell Viability Assay (Promega) following manufactures' instruction. Percentage of viable cells in each compound concentration was determined by normalizing with the luminescence of vehicle control and plotted into percentage of viability versus dose response curve by nonlinear fit in GraphPad Prism software."}, "[2]": {"tested_on": "Jeko-1", "experiment": "CTG assay of payloads, Jeko-1 cells", "assay_type": "cell-based, human", "conditions": "Homo sapiens, JeKo-1; Table 1; 72 h, CellTiter-Glo", "from_the_text": "as §1"}, "[3]": {"experiment": "Human liver microsome clearance (HLM CL)", "assay_type": "in vitro ADME", "design": "CLint scaled / half-life: dose or concentration left out as unconfirmed", "conditions": "human, microsomes", "experimental": "Working solution was prepared by adding 5 μL of compound and control stock solution (10 mM in dimethyl sulfoxide, DMSO) to 495 μL of acetonitrile (ACN) (intermediate solution concentration: 100 μM, 99% CAN and 1% DMSO. The appropriate concentrations of microsome working solutions were prepared in 100 mM potassium phosphate buffer. After reaction plates containing mixtures of compound and microsomes were pre-incubated at 37° C. for 10 min, […] of 2 mM of NADPH and 2 mM of MgCl2 solution was added to start the reaction. The final concentrations of incubation medium were as follows: microsome—0.5 mg protein/mL, test compound/control […], NADPH—1 mM, MgCl2—1 mM, acetonitrile 0.99%, DMSO 0.01%. Incubations were performed at 37° C. for 60 min. Samples were taken out at T0, T5, T15, T30, T45 and T60, which was added intermediately to the ice-cold stop solution (acetonitrile with 200 ng/mL of to butamide and labetalol as internal standard) (125 μl), shaken for 10 min, centrifuged at 4000 rpm for 20 min at 4° C. Analytical plates were analyzed by LCMS.\n(§2) Human liver microsome clearance assay assess metabolism by the cytochrome P450 system (phase I enzymes). These enzymes oxidize substrates by incorporating oxygen atoms into hydrocarbons, thus causing the introduction of hydroxyl groups, or N- O- and S-dealkylation of substrates and forming more polar products easier to be cleared. Human hepatocyte clearance assay measures more broadly the overall cellular metabolism of the test compound (phase I and phase II enzyme pathways). Phase II enzymes catalyze the conjugation reaction of xenobiotic metabolites and charged species, such as glutathione, sulfate, glycine, or glucuronic acid to form even more polar compounds for easier clearance."}, "[4]": {"experiment": "Human hepatocyte clearance (HHEP CL)", "assay_type": "in vitro ADME", "design": "CLint scaled / half-life: dose or concentration left out as unconfirmed", "conditions": "both sexes, human, hepatocytes", "experimental": "Suspensions of human hepatocytes (from 10 mixed gender human donors, final concentration 0.5×10^6 cell/mL) in Williams' E medium were incubated for 90 min with a test compound (0.90% acetonitrile and 0.10% DMSO, final concentration […]) and positive controls (7-Ethoxycoumarin, 7-Hydroxycoumarin, 0.90% acetonitrile and 0.10% DMSO, final concentration […]), with constant shaking at about 600 rpm at 37° C. in an incubator at 5% CO2 and 95% humidity. The total volume of incubation was 200 μl. A sample ([…]) was taken out at T0, 15, 30, 60 and 90 min, which was added intermediately to the ice-cold stop solution (acetonitrile with 200 ng/mL of to butamide and labetalol as internal standard) (125 μl), and vortexed at 500 rpm for 10 min, centrifuged at 3220×g for 20 min at 4° C. Analytical plates were sealed and stored at 4° C. until LCMS analysis. Viability of hepatocytes at pre-incubation was determined to be 84.5%.\nas §2"}, "[5]": {"experiment": "PAMPA (Parallel Artificial Membrane Permeability Assay)", "assay_type": "physicochemical", "design": "dose or concentration left out as unconfirmed", "from_the_text": "PAMPA is a method which determines the permeability of substances from a donor compartment, through a lipid-infused artificial membrane into an acceptor compartment. See Ottaviani, G.; Martel, S.; Carrupt, P-A. “Parallel Artificial Membrane Permeability Assay: A New Membrane for the Fast Prediction of Passive Human Skin Permeability”, Journal of Medicinal Chemistry, 2006, 49 (13), 3948-3954). A multi-well microtitre plate is used for the donor and a membrane/acceptor compartment is placed on top; the whole assembly is commonly referred to as a “sandwich”. At the beginning of the test, the drug is added to the donor compartment, and the acceptor compartment is drug-free. After an incubation period which may include stirring, the sandwich is separated, and the amount of drug is measured in each compartment. Mass balance allows calculation of drug that remains in the membrane.\nThe PAMPA was performed by Pion Inc using the GIT-0 lipid and 5 mM donor solution in pH 5.0 and pH 7.4 PRISMA buffer (containing 0.05% DMSO). The higher PAMPA data has been associated with better bystander killing. (Ogitani Y.; Hagihara K.; Oitate, M.; Naito, H.; Agatsuma T. “Bystander killing effect of DS-8201a, a novel anti-human epidermal growth factor receptor 2 antibody-drug conjugate, in tumors with human epidermal growth factor receptor 2 heterogeneity” Cancer Science, 2016, 107 (7), 1039-1046)."}}, "data": [{"compound": "CC[C@@]1(O)C(=O)OCc2c1cc1n(c2=O)Cc2c-1nc1cc(F)c(C)c3c1c2[C@@H](CO)CC3", "note": "(single isomer, unassigned) [Compound 1-17]", "values": [{"measurement": "IC50", "setting": "[1]", "result": 7.7, "unit": "nM"}, {"measurement": "IC50", "setting": "[2]", "result": 1, "unit": "nM"}, {"measurement": "CLint scaled", "setting": "[3]", "result": 53.2, "unit": "mL/min/kg"}, {"measurement": "half-life", "setting": "[3]", "result": 23.5, "unit": "min"}, {"measurement": "CLint scaled", "setting": "[4]", "result": 17.9, "unit": "mL/min/kg"}, {"measurement": "half-life", "setting": "[4]", "result": 215, "unit": "min"}, {"measurement": "Papp", "setting": "[5]; pH 5", "result": 74.7, "unit": "×10⁻⁶ cm/s"}, {"measurement": "Papp", "setting": "[5]; pH 7.4", "result": 7.8, "unit": "×10⁻⁶ cm/s"}]}, {"compound": "CC[C@@]1(O)C(=O)OCc2c1cc1n(c2=O)Cc2c-1nc1cc(F)c(C)c3c1c2[C@](C)(N1CC[C@H](O)C1)CC3", "note": "(single isomer, unassigned) [Compound 5-41]", "values": [{"measurement": "IC50", "setting": "[1]", "result": 92.2, "unit": "nM"}, {"measurement": "IC50", "setting": "[2]", "result": 11.6, "unit": "nM"}, {"measurement": "CLint scaled", "setting": "[3]", "result": 92.5, "unit": "mL/min/kg"}, {"measurement": "half-life", "setting": "[3]", "result": 13.5, "unit": "min"}, {"measurement": "CLint scaled", "setting": "[4]", "result": 49.8, "unit": "mL/min/kg"}, {"measurement": "half-life", "setting": "[4]", "result": 77, "unit": "min"}, {"measurement": "Papp", "setting": "[5]; pH 5", "result": 53.5, "unit": "×10⁻⁶ cm/s"}, {"measurement": "Papp", "setting": "[5]; pH 7.4", "result": 6.6, "unit": "×10⁻⁶ cm/s"}]}, {"compound": "CC[C@@]1(O)C(=O)OCc2c1cc1n(c2=O)Cc2c-1nc1cc(F)c(C)c3c1c2[C@@](C)(CO)CC3", "note": "(single isomer, unassigned) [Compound 3-28]", "values": [{"measurement": "IC50", "setting": "[1]", "result": 9.9, "unit": "nM"}, {"measurement": "IC50", "setting": "[2]", "result": 1.3, "unit": "nM"}, {"measurement": "CLint scaled", "setting": "[3]", "result": 53.8, "unit": "mL/min/kg"}, {"measurement": "half-life", "setting": "[3]", "result": 23, "unit": "min"}, {"measurement": "CLint scaled", "setting": "[4]", "result": 62.9, "unit": "mL/min/kg"}, {"measurement": "half-life", "setting": "[4]", "result": 61, "unit": "min"}, {"measurement": "Papp", "setting": "[5]; pH 5", "result": 64, "unit": "×10⁻⁶ cm/s"}, {"measurement": "Papp", "setting": "[5]; pH 7.4", "result": 8.4, "unit": "×10⁻⁶ cm/s"}]}, {"compound": "CC[C@@]1(O)C(=O)OCc2c1cc1n(c2=O)Cc2c-1nc1cc(F)c(C)c3c1c2[C@](C)(CO)CC3", "note": "(single isomer, unassigned) [Compound 3-27]", "values": [{"measurement": "IC50", "setting": "[1]", "result": 18.6, "unit": "nM"}, {"measurement": "IC50", "setting": "[2]", "result": 2.1, "unit": "nM"}, {"measurement": "CLint scaled", "setting": "[3]", "result": 128, "unit": "mL/min/kg"}, {"measurement": "half-life", "setting": "[3]", "result": 9.7, "unit": "min"}, {"measurement": "CLint scaled", "setting": "[4]", "result": 62.4, "unit": "mL/min/kg"}, {"measurement": "half-life", "setting": "[4]", "result": 62, "unit": "min"}, {"measurement": "Papp", "setting": "[5]; pH 5", "result": 62.2, "unit": "×10⁻⁶ cm/s"}, {"measurement": "Papp", "setting": "[5]; pH 7.4", "result": 8.5, "unit": "×10⁻⁶ cm/s"}]}, {"compound": "CC[C@@]1(O)C(=O)OCc2c1cc1n(c2=O)Cc2c-1nc1cc(F)c(C)c3c1c2[C@H](CO)CC3", "note": "(single isomer, unassigned) [Compound 1-16]", "values": [{"measurement": "IC50", "setting": "[1]", "result": 7.2, "unit": "nM"}, {"measurement": "IC50", "setting": "[2]", "result": 0.79, "unit": "nM"}, {"measurement": "CLint scaled", "setting": "[3]", "result": 44, "unit": "mL/min/kg"}, {"measurement": "half-life", "setting": "[3]", "result": 28, "unit": "min"}, {"measurement": "CLint scaled", "setting": "[4]", "result": 33, "unit": "mL/min/kg"}, {"measurement": "half-life", "setting": "[4]", "result": 117, "unit": "min"}, {"measurement": "Papp", "setting": "[5]; pH 5", "result": 40.4, "unit": "×10⁻⁶ cm/s"}, {"measurement": "Papp", "setting": "[5]; pH 7.4", "result": 8.5, "unit": "×10⁻⁶ cm/s"}]}]}
